Data taken from patent publication US20040058425A1, “Crystal structure” (priority 2001, published 2004).

Experiments:
PDHK [1] = assay: Assay to measure whether compounds inhibit PDHK activity (kinase reaction with porcine PDH and MgATP, then residual PDH activity by NAD reduction at 340 nm); assay type: biochemical; settings: result in words
Method: Compounds were assessed for inhibition of PDHK in an assay adapted from Espinal, J. et al (1995) Drug Development Res. 35, 130-136. In the first part of the assay, compounds were incubated with porcine PDH (Sigma P-7032) and MgATP, and the reaction was stopped after defined intervals. In the second part of the assay, the residual PDH activity was measured by monitoring the rate of reduction of NAD at 340 nm.
The assay was performed in flat-bottom 96-well microtitre plates, using a final volume of 50 μl for the first part of the assay (kinase reaction), and 250 μl for the PDH reaction. At first, 10 μl test compound in a suitable diluent, 20 μl kinase buffer (20 mM potassium phosphate, pH7.0, 4 mM MgCl2, 4 mM dithiothreitol) and 10 μl PDH (Sigma, P-7032, diluted with water to a final concentration of 1.83 mg/ml) were mixed and incubated for 10 min; then 10 μl ATP solution (125 μM in kinase buffer) was added to start the reaction.
The incubations were done at 30° C. The kinase reaction was terminated after defined intervals (usually 0, 10, 20, 30, 60, and 90 min) by initiating the PDH reaction. […] Kinetic readings were then taken at 340 nm conducted at 12 sec intervals for 20 min with shaking for 1 sec before each reading was taken, in a SpectraMax plate reader. […]

PDHK [2] = assay: Kinase activity of PDHK using a PDHK specific substrate peptide; assay type: biochemical; settings: data not shown

| Compound | ATP dependent inhibition of the PDH complex (PDHK [1]) | inhibition of the kinase activity of PDHK (PDHK [2]) |
| --- | --- | --- |
| N-{4-[(ethylanilino)sulfonyl]-2-methylphenyl}-3,3,3-trifluoro-2-hydroxy-2-methylpropanamide [Compound 2] | prevent ATP dependent inhibition of the PDH complex | do not inhibit the kinase activity of PDHK |
| CC1CN(C(=O)C(C)(O)C(F)(F)F)C(C)CN1C(=O)c1ccc(C#N)cc1 (stereo not shown) [Compound 1] | prevent ATP dependent inhibition of the PDH complex | do not inhibit the kinase activity of PDHK |
